MIC50, MIC90 and Activity data for 10 molecules are collected here from ChEMBL document CHEMBL1143836, “Predictors of mortality in patients with bloodstream infections caused by extended-spectrum-beta-lactamase-producing Enterobacteriaceae: importance of inadequate initial antimicrobial treatment” (2007).

≈ marks a conversion by molar mass, not a printed value.

Experiment [1] has as its system Escherichia coli. Description: Antimicrobial activity against extended-spectrum-beta-lactamase producing Escherichia coli isolates. In kind it is functional.
The subject of experiment [2] is Klebsiella pneumoniae. Description: Antimicrobial activity against extended-spectrum-beta-lactamase producing Klebsiella pneumoniae assessed as percent susceptible isolates.
Experiment [3] concerns Proteus mirabilis. Description: Antimicrobial activity against extended-spectrum-beta-lactamase producing Proteus mirabilis assessed as percent resistant isolates. In kind it is functional.
Experiment [4] concerns Klebsiella pneumoniae. Description: Antimicrobial activity against extended-spectrum-beta-lactamase producing Klebsiella pneumoniae isolates. Format: functional.
The subject of experiment [5] is Proteus mirabilis. Description: Antimicrobial activity against extended-spectrum-beta-lactamase producing Proteus mirabilis isolates. Format: functional.
Experiment [6] has as its system Escherichia coli. As to the kind of experiment: Antimicrobial activity against extended-spectrum-beta-lactamase producing Escherichia coli assessed as percent resistant isolates. Format: functional.

What is called MIC50 is the lowest concentration that inhibits either 50% of growth or 50% of the strains tested, depending on the study. A high value points to lower susceptibility. What is called MIC90 is the lowest concentration that inhibits either 90% of growth or 90% of the strains tested, depending on the study. Read a high MIC90 as weaker potency.

Consider `C[C@H]1[C@H](NC(=O)/C(=N\OC(C)(C)C(=O)O)c2csc(N)n2)C(=O)N1S(=O)(=O)O` (stereo in doubt) [AZTREONAM], for which the MIC50 in the experiment with Escherichia coli [1] turned out to be 256 µg/mL (≈ 588 µM); in the experiment on Klebsiella pneumoniae [4] it was 256 µg/mL (≈ 588 µM); in the experiment with Proteus mirabilis [5] it was 0.25 µg/mL (≈ 0.574 µM). In addition, the MIC90 in the experiment with Escherichia coli [1] is 256 µg/mL (≈ 588 µM); in the experiment with Klebsiella pneumoniae [4], 256 µg/mL (≈ 588 µM); against Proteus mirabilis [5], 1 µg/mL (≈ 2.3 µM). Besides, the Activity with Klebsiella pneumoniae [2] and in the experiment with Proteus mirabilis [3] was 0% throughout.

For `NCC[C@H](O)C(=O)N[C@@H]1C[C@H](N)[C@@H](O[C@H]2O[C@H](CN)[C@@H](O)[C@H](O)[C@H]2O)[C@H](O)[C@H]1O[C@H]1O[C@H](CO)[C@@H](O)[C@H](N)[C@H]1O` [AMIKACIN], the MIC50 against Escherichia coli [1], with Klebsiella pneumoniae [4] and against Proteus mirabilis [5] was 2 µg/mL (≈ 3.42 µM) throughout. Moreover, the figures for the MIC90 against Escherichia coli [1], in the experiment with Klebsiella pneumoniae [4] and in the experiment with Proteus mirabilis [5] were 8 µg/mL (≈ 13.7 µM), 16 µg/mL (≈ 27.3 µM) and 4 µg/mL (≈ 6.83 µM), respectively. Also, the Activity in the experiment on Klebsiella pneumoniae [2] was 91.4%; with Proteus mirabilis [3] it was 100%; in the experiment with Escherichia coli [6], 98.1%.

In the case of `CO/N=C(\C(=O)N[C@@H]1C(=O)N2C(C(=O)[O-])=C(C[N+]3(C)CCCC3)CS[C@H]12)c1csc(N)n1` [CEFEPIME], the MIC50 against Escherichia coli [1] is 16 µg/mL (≈ 33.3 µM); in the experiment with Klebsiella pneumoniae [4], 1 µg/mL (≈ 2.08 µM); against Proteus mirabilis [5] it was 2 µg/mL (≈ 4.16 µM). Further, the MIC90 with Escherichia coli [1] was determined as 256 µg/mL (≈ 533 µM); in the experiment on Klebsiella pneumoniae [4], 256 µg/mL (≈ 533 µM); with Proteus mirabilis [5], 32 µg/mL (≈ 66.6 µM). Also, the Activity in the experiment with Klebsiella pneumoniae [2], with Proteus mirabilis [3] and in the experiment with Escherichia coli [6] was 0% throughout.

As for `CO/N=C(\C(=O)N[C@@H]1C(=O)N2C(C(=O)O)=C(COC(C)=O)CS[C@H]12)c1csc(N)n1` [CEFOTAXIME], the MIC50 was 256 µg/mL (≈ 562 µM) against Escherichia coli [1], 8 µg/mL (≈ 17.6 µM) in the experiment on Klebsiella pneumoniae [4] and 16 µg/mL (≈ 35.1 µM) against Proteus mirabilis [5]. Further, the MIC90 in the experiment with Escherichia coli [1], in the experiment on Klebsiella pneumoniae [4] and in the experiment on Proteus mirabilis [5] was 256 µg/mL (≈ 562 µM) throughout. In addition, the Activity in the experiment with Klebsiella pneumoniae [2], in the experiment with Proteus mirabilis [3] and in the experiment with Escherichia coli [6] was 0% throughout.

In the case of `CO[C@@]1(NC(=O)Cc2cccs2)C(=O)N2C(C(=O)O)=C(COC(N)=O)CS[C@@H]21` [CEFOXITIN], the MIC50 against Escherichia coli [1], with Klebsiella pneumoniae [4] and against Proteus mirabilis [5] was 2 µg/mL (≈ 4.68 µM) throughout. For the same molecule, the MIC90 is at least 64 µg/mL with Escherichia coli [1], at least 64 µg/mL against Klebsiella pneumoniae [4] and 8 µg/mL (≈ 18.7 µM) in the experiment on Proteus mirabilis [5]. For the same molecule, the Activity with Klebsiella pneumoniae [2] was found to be 74.1%; in the experiment on Proteus mirabilis [3], 0%; in the experiment with Escherichia coli [6] it was 71.1%.

Consider `CC(C)(O/N=C(\C(=O)N[C@@H]1C(=O)N2C(C(=O)[O-])=C(C[n+]3ccccc3)CS[C@H]12)c1csc(N)n1)C(=O)O` [CEFTAZIDIME], for which the MIC50 is 256 µg/mL (≈ 468 µM) against Escherichia coli [1], 256 µg/mL (≈ 468 µM) against Klebsiella pneumoniae [4] and 4 µg/mL (≈ 7.32 µM) in the experiment with Proteus mirabilis [5]. Further, the MIC90 is 256 µg/mL (≈ 468 µM) in the experiment on Escherichia coli [1], 256 µg/mL (≈ 468 µM) with Klebsiella pneumoniae [4] and 16 µg/mL (≈ 29.3 µM) in the experiment on Proteus mirabilis [5]. In addition, the Activity with Klebsiella pneumoniae [2], with Proteus mirabilis [3] and in the experiment on Escherichia coli [6] was 0% each time.

As to `O=C(O)c1cn(C2CC2)c2cc(N3CCNCC3)c(F)cc2c1=O` [CIPROFLOXACIN], the MIC50 with Escherichia coli [1] was at least 16 µg/mL; against Klebsiella pneumoniae [4], 2 µg/mL (≈ 6.04 µM); with Proteus mirabilis [5] it was at least 16 µg/mL. Besides, the MIC90 in the experiment on Escherichia coli [1], with Klebsiella pneumoniae [4] and with Proteus mirabilis [5] was at least 16 µg/mL each time. Further, the Activity was found to be 46.5% in the experiment on Klebsiella pneumoniae [2], 12.5% with Proteus mirabilis [3] and 8.6% in the experiment with Escherichia coli [6].

In the case of `C[C@@H](O)[C@H]1C(=O)N2C(C(=O)O)=C(SCCNC=N)C[C@H]12` [IMIPENEM ANHYDROUS], the Activity in the experiment with Klebsiella pneumoniae [2], in the experiment on Proteus mirabilis [3] and in the experiment on Escherichia coli [6] was 100% in each case. The MIC50 with Klebsiella pneumoniae [4] was determined as 0.25 µg/mL (≈ 0.835 µM); against Proteus mirabilis [5], 1 µg/mL (≈ 3.34 µM). The MIC90 was 0.25 µg/mL (≈ 0.835 µM) with Klebsiella pneumoniae [4] and 4 µg/mL (≈ 13.4 µM) against Proteus mirabilis [5].

Regarding `C[C@H]1COc2c(N3CCN(C)CC3)c(F)cc3c(=O)c(C(=O)O)cn1c23.C[C@H]1COc2c(N3CCN(C)CC3)c(F)cc3c(=O)c(C(=O)O)cn1c23.O` [LEVOFLOXACIN], the MIC50 against Escherichia coli [1] is at least 32 µg/mL; in the experiment with Klebsiella pneumoniae [4] it was 2 µg/mL; with Proteus mirabilis [5], at least 32 µg/mL. The MIC90 against Escherichia coli [1], in the experiment on Klebsiella pneumoniae [4] and in the experiment on Proteus mirabilis [5] was at least 32 µg/mL in each case. Further, the figures for the Activity with Klebsiella pneumoniae [2], in the experiment on Proteus mirabilis [3] and in the experiment with Escherichia coli [6] were 48.2%, 12.5% and 8.6%, respectively.

Turning to `C[C@@H](O)[C@H]1C(=O)N2C(C(=O)O)=C(S[C@@H]3CN[C@H](C(=O)N(C)C)C3)[C@H](C)[C@H]12` [MEROPENEM], the MIC50 in the experiment with Escherichia coli [1], in the experiment on Klebsiella pneumoniae [4] and in the experiment with Proteus mirabilis [5] was 0.03 µg/mL (≈ 0.0782 µM) in each case. Besides, the MIC90 with Escherichia coli [1], in the experiment on Klebsiella pneumoniae [4] and in the experiment with Proteus mirabilis [5] was 0.25 µg/mL (≈ 0.652 µM) throughout. Besides, the Activity in the experiment on Klebsiella pneumoniae [2], in the experiment with Proteus mirabilis [3] and in the experiment with Escherichia coli [6] was 100% each time.
